Results reported in patent US8821862B2, “Soluble β-N-acetylglucosaminidase based antibiofilm compositions and uses thereof” (Kane Biotech Inc., priority 2002, dated 2014).

Assays:
[1] = tested on: biofilm-embedded S. epidermidis; test: In vitro biofilm killing assay after DispersinB pre-treatment; type: cell-based, Staphylococcus epidermidis; details: 37° C.
Method: An in vitro biofilm assay was performed to determine the effect of DispersinB™ pre-treatment on the susceptibility of S. epidermidis to SDS. S. epidermidis biofilm grown in tubes were pretreated with PBS or DispersinB™ (20 μg/ml) for 30 min, and then treated with SDS (0.2 mg/ml) for 5 min at 37° C. […] However, SDS caused a 1.5 log unit decrease in the number of CFUs in tubes pretreated with […] biofilm embedded cells more susceptible to SDS.
An in vitro biofilm assay was performed to determine the effect of DispersinB™ pre-treatment on the susceptibility of biofilm-embedded S. epidermidis to CHX. S. epidermidis biofilm grown in tubes were pretreated with PBS or DispersinB™ (20 μg/ml) for 30 min, and then treated with CHX (0.2 μg/ml) for 5 min at 37° C. […] However, CHX caused a 1.6 log decrease of CFU in tubes pretreated with DispersinB™. DispersinB™ pretreatment made biofilm-embedded cells more susceptible to CHX.
An in vitro biofilm assay was performed to determine the effect of DispersinB™ pre-treatment on the susceptibility of S. epidermidis to BKC. S. epidermidis biofilm grown in tubes were pretreated with PBS or DispersinB™ (20 μg/ml) for 30 min, and then treated with BKC (0.4 μg/ml) for 60 min at 37° C. […] However, BKC caused a 2.2 log decrease in CFU in tubes pretreated with DispersinB™. DispersinB™ pre-treatment made biofilm-embedded cells more susceptible to BKC.
An in vitro biofilm assay was performed to determine the effect of DispersinB™ pre-treatment on susceptibility of S. epidermidis to silver nanopowder (SNP). S. epidermidis biofilm grown in tubes were pretreated with PBS or DispersinB™ (20 μg/ml) for 30 min, and then treated with SNP (0.03125 μg/ml) for 60 min at 37° C. […] However, SNP caused a 1.5 log decrease in CFU in tubes pretreated with DispersinB™. DispersinB™ pre-treatment made biofilm embedded cells more susceptible to SNP treatment.

[2] = tested on: biofilm embedded S. aureus; test: 12-well microplate biofilm assay with CFU counting; type: cell-based, Staphylococcus aureus; details: EGCG 100 ng/ml alone versus DispersinB alone
Method: An in vitro microplate assays were performed to determine the effects of a DispersinB™ and EGCG combination on the growth of biofilm embedded S. epidermidis and S. aureus. Overnight cultures of each bacterial strain grown in Tryptic Soy Broth (TSB) were used as inoculum. Biofilm was developed in TSB on a 12-well microplate in the absence and presence of each test compound (50 ng DispersinB™ or 100 ng/ml ECCG) separately and together (DispersinB™+EGCG). The plates were incubated at 37° C. for 24 hours. Medium containing planktonic cells in each well was removed gently and rinsed with sterile water. A known volume of water was added to each well and sonicated for 30 seconds. The contents of each well was transferred into a sterile tube, vortexed for a minute, followed by 10-fold serial dilution, and plated on agar plates using a spreader. After incubating the plates at 37° C. for 24 hours, colony forming units (CFU) were counted.

[3] = tested on: biofilm embedded S. epidermidis; test: 12-well microplate biofilm assay with CFU counting; type: cell-based, Staphylococcus epidermidis
Method: In vitro microplate assays were performed to determine the effect of DispersinB and PyrM combination on the growth of biofilm-embedded S. epidermidis. Overnight growth of S. epidermidis in tryptic soy broth (TSB) was used as inoculum. Biofilm was developed in 12-well microplate in the absence and presence of each test compound (1 μg/ml DispersinB or 8 μg/ml PyrM) separately and together (DispersinB+PyrM). The plates were incubated at 37° C. for 24 h. Medium containing planktonic cells in each well was removed gently and rinsed with sterile water. A known volume of water was added to each well and sonicated for seconds. The contents of each well was transferred into a sterile tube, vortexed for a minute, followed by 10-fold serial dilution, and plated on agar plates using a spreader. After incubating the plates at 37° C. for 24 h, colony-forming units (CFU) were counted.

[4] = tested on: A. actinomycetemcomitans strain CU1000 (wild-type) biofilms; test: Biofilm detachment assay (crystal violet); type: cell-based
Excerpt: (§1) Bacterial strains, media, and growth conditions. A. actinomycetemcomitans strain CU1000 (serotype f) was isolated from a person with localized aggressive periodontitis (Fine et al., Microbiol. 1999, 145: 1335-1347). […] An isogenic PGA mutant strain HW1018 (CU1000 pgaC::IS903φKan) was isolated by randomly mutagenizing CU1000 with transposon IS903φKan and selecting mutants that produced white colonies on Congo red agar, as previously described (Kaplan et al., 2003; Kaplan et al., J. Bacteriol. 2004, 186: 8213-8220). Like other pgaC mutant strains, HW1018 was completely deficient in PGA production, but still formed tenacious biofilms on plastic surfaces (Kaplan et al., 2004). Bacteria were grown in trypticase soy broth supplemented with […] and 8 g/L glucose. Solid medium was supplemented with 15 g/L agar. All cultures were incubated statically at 37° C. in 10% CO2.
(§2) Biofilm Cultures. Biofilms were grown in 17 mm×100 mm culture tubes (untreated polystyrene; Falcon #352051) or 96-well microtiter plates (tissueculture-treated polystyrene, flat bottoms; Falcon #353072). Culture vessels were inoculated with a 1:10 dilution of inoculum in fresh broth (1 mL for tubes or 200 μL for microplates) and incubated for 24 h.
(§3) Crystal Violet Assay. Biofilm biomass was visualized and quantitated by means of a crystal violet binding assay as previously described (Kaplan et al., Antimicrob. Agents Chemother. 2004, 48: 2633-2636). Briefly, biofilms were rinsed with water to remove loosely attached cells, stained for 1 min with Gram's crystal violet (200 μL for microplates and 1 mL for tubes), rinsed, dried, and photographed. For quantitation of biofilms grown in microplates, biofilms were de-stained with 200 μL of 33% acetic acid for 5 min, and the absorbance of the crystal violet solution was measured directly in the plate by means of a BioRad Benchmark microtiter plate-reader set at 590 nm. Crystal violet binds to bacterial biofilms, but not to polystyrene (O'Toole & Kolter, Mol. Microbiol. 1998, 28: 449-461).
(§4) Biofilm Detachment Assay. Biofilms were rinsed with water and treated with 200 μL (for microplates) or 1 mL (for tubes) of DispersinB™ (20 μg/mL in PBS) or SDS (0.001-1% in PBS). After a five- or 30-minute incubation at 37° C., biofilms were rinsed with water and stained with crystal violet as described above. In some assays, biofilms were first treated with DispersinB™ for 5 or 30 min, rinsed, and then treated with SDS. All detachment assays were performed in duplicate wells or tubes. All assays were performed on at least 3 separate occasions, with similar results.

[5] = tested on: A. actinomycetemcomitans strain HW1018 (PGA mutant) biofilms; test: Biofilm detachment assay (crystal violet); type: cell-based; details: 0.1% SDS in PBS, 5 min; tubes and microplate wells
Excerpt: as §1, §2, §3, §4

[6] = tested on: A. actinomycetemcomitans planktonic cells; details: SDS; Drake et al. 1992, Wade & Addy 1992; cited from earlier work
[7] = tested on: A. actinomycetemcomitans CU1000 biofilms; test: Biofilm killing assay; type: cell-based; details: for decrease in the number of CFU: then 0.01% SDS 5 min
Method: Biofilm Killing Assay. […] Tubes were vortexed for 10 s, and 20 μL aliquots of the detached biofilms were transferred to the wells of a flat-bottomed 96-well microtiter plate containing 180 μL of fresh broth. Five serial dilutions (20 μL into 180 μL) were performed directly into adjacent wells. Plates were incubated for 48 h and then rinsed and stained with crystal violet as described above. Wells containing 30-300 biofilm colonies were photographed under a dissecting microscope and counted. In some assays, biofilms were pre-treated with 1 mL of DispersinB™ (20 μg/mL in PBS) for 5 min prior to the SDS treatment. In these assays, a 100 μL quantity of SDS in PBS (at 10 times the test concentration) was added directly to the DispersinB™-treated cell suspension and mixed. After 5 min, tubes were vortexed briefly, and 20-μL aliquots of culture were enumerated as described above. Killing assays were performed in duplicate tubes on at least 5 separate occasions, with similar results.

[8] = tested on: biofilm-embedded S. epidermidis; test: In vitro biofilm-dispersal assay in microcentrifuge tubes (sensitivity of biofilm-embedded cells, CFU plating); type: cell-based, Staphylococcus epidermidis; details: 3 h, 37° C.
[9] = tested on: E. coli csrA luxCDABE kan^r biofilm; test: Bioluminescent E. coli biofilm on filter disc, luminescence; type: cell-based; details: Table 4, repeated experiment
Excerpt: E. coli TRMG1655 [csrA::kan^r] strain was transformed with transposon, mini-TN5 luxCDABE::kan^r for luciferase expression (Kadurugamuwa et al., 2005, Infect. Immun. 73: 3878-3887), and the operon integrated into the chromosome. Integration was confirmed by amplification of the genomic DNA upstream of the transposon by inverse PCR using Ssp1-digested genomic DNA. Primers UTCF1 (5′-[…]-3′; SEQ ID NO:13) and UTCR (5′-[…]-3′; SEQ ID NO:14) were used to amplify the upstream region using Pfu DNA polymerase (Sigma-Oligosynthesis, St. Louis, Mo.). The lux operon is derived from Photorhabdus luminescence and was obtained from Xenogen Inc. (Alameda, Calif.). These bioluminescent bacteria allow real-time monitoring by noninvasive imaging of biofilms, either in vitro or in vivo.
A cell suspension of 10^6 E. coli csrA luxCDABE kan^r was used to inoculate a filter disc (Millipore Corporation, Billerica, Mass.). The E. coli biofilm was maintained in minimal media (M9) supplemented with 50 μg/ml kanamycin and 100 μg/ml ampicillin. The media were changed every day by transferring the disc to new plate. After 3 days, chemoluminescence activity of the established biofilm was measured using a Typhoon™ imaging scanner (General Electric Healthcare Life Sciences) and ImageQuant TL software (Amersham Biosciences, Sunnyvale, Calif.). The measure luminescence directly correlates with the metabolic activity of the biofilm.
Luminescence was measured at day 0 and was used as the control. Following the measurement of luminescence at day 0, each disc was treated with one of the following—media alone (control) and media containing:
Luminescence was measured every 24 hours followed by replacing the media. Thus, every 24 h following the measurement of the luminescence, 10 μl each of the different solutions was applied to the plate and the biofilm disc was placed on top of the drop everyday. The quantitative analysis of the biofilm luminescence from each day was used to compare the biofilm activity after treatment with the different treatments.
The experiments were repeated using the same E. coli strain csrA luxCDABE kan^r and protocols. Biofilm discs were pulsed with media alone (control) and media containing: […]

[10] = BisEDT 50 μg/ml, DispersinB 50 μg/ml, phage cocktail 10^8

## [H]/N=C(\N/C(=N/[H])NCCCCCCNC(=N)NC(=N)Nc1ccc(Cl)cc1)Nc1ccc(Cl)cc1 [CHX, chlorhexidine]
[1]; CHX alone, 0.2 μg/ml, 5 min, PBS pretreatment
  killing of S. epidermidis biofilm: did not significantly kill
[1]; tubes pretreated with DispersinB 20 μg/ml 30 min, then CHX 0.2 μg/ml 5 min
  decrease of CFU: 1.6 log

## O=C(O[C@@H]1Cc2c(O)cc(O)cc2O[C@@H]1c1cc(O)c(O)c(O)c1)c1cc(O)c(O)c(O)c1 [EGCG, Epigallocatechin gallate]
[2]
  inhibiting the growth of biofilm embedded S. aureus, compound alone: more effective than DispersinB™
[3]; EGCG 100 ng/ml alone versus DispersinB alone
  inhibiting the growth of biofilm embedded S. epidermidis, compound alone: more effective than DispersinB™

## O=C1C=CC(=O)N1c1ccc2ccc3cccc4ccc1c2c34 [PyrM, N-(1-pyrenyl)maleimide]
[3]; 8 μg/ml PyrM alone versus 1 μg/ml DispersinB alone
  inhibiting the growth of biofilm-embedded S. epidermidis, compound alone: more effective than DispersinB

## CCCCCCCCCCCCOS(=O)(=O)[O-].[Na+] [SDS, sodium dodecyl sulfate]
[4]; 0.001-1% SDS, 5 min, microplate wells, mock pretreatment
  detachment of wild-type biofilms by SDS: resistant to detachment at all concentrations of SDS
[4]; 0.1% SDS in PBS, 5 min, tubes and microplate wells
  attachment of wild-type biofilms: no effect
[4]; wild-type biofilms pre-treated with DispersinB 20 μg/mL 30 min, then SDS 5 min, microplate wells
  SDS concentrations at which biofilms were resistant to detachment: < 0.04%
[4]; wild-type biofilms pre-treated with DispersinB, same transition expressed in mM
  SDS concentration of transition from SDS-resistant to SDS-sensitive: 1.4 to 2.4 mM
[5]
  detachment of PGA mutant biofilms: rapid detachment
[1]; SDS alone, 0.2 mg/ml, 5 min, PBS pretreatment
  killing of biofilm-embedded S. epidermidis: did not significantly kill
[1]; tubes pretreated with DispersinB 20 μg/ml 30 min, then SDS 0.2 mg/ml 5 min
  decrease in the number of CFUs: 1.5 log unit
[6]
  MIC against planktonic cells: 0.01%
[7]; SDS alone, 0.01%, 5 min, mock pre-treatment
  killing of A. actinomycetemcomitans biofilms: did not significantly kill
[7]; tubes pre-treated with DispersinB 20 μg/mL for 5 min
  decrease in the number of CFU: 2 log-unit
[7]; tubes pre-treated with DispersinB 20 μg/mL for 30 min
  decrease in the number of CFU: 4 log-unit

## O=C1C=CC(=O)N1c1ccccc1N1C(=O)C=CC1=O [oPDM, N,N-(1,2 phenylene)dimaleimide]
[3]; 625 μg/ml oPDM alone versus 1 μg/ml DispersinB alone
  inhibiting the growth of biofilm-embedded S. epidermidis, compound alone: more effective than DispersinB

## OC[C@@H](O)[C@H](O)[C@@H](O)CO [xylitol]
[8]; 5% xylitol in combination with DispersinB 20 μg/ml
  inhibitory effect on biofilm-embedded S. epidermidis: slightly enhanced the inhibitory effect

## benzalkonium chloride [BKC]
[1]; BKC alone, 0.4 μg/ml, 60 min, PBS pretreatment
  killing of biofilm-embedded S. epidermidis: did not significantly kill
[1]; tubes pretreated with DispersinB 20 μg/ml 30 min, then BKC 0.4 μg/ml 60 min
  decrease in CFU: 2.2 log

## bismuth ethanedithiol [BisEDT]
[9]; [10]
  luminescence, Day 1: 245.27 RLU
  luminescence, Day 2: 83.51 RLU
  luminescence, Day 3: 8.02 RLU
  luminescence, Day 4: 47.62 RLU
[9]; Day 0, before treatment (baseline)
  luminescence, Day 0: 1815.26 RLU

## glucose oxidase
[8]; glucose oxidase 10 U/m in combination with DispersinB 20 μg/ml
  inhibitory effect on biofilm-embedded S. epidermidis: enhanced the inhibitory effect
